# Article PMC9090415, “Discovery of small molecule inhibitors of Plasmodium falciparum apicoplast DNA polymerase” (Journal of Enzyme Inhibition and Medicinal Chemistry, 2022)
# pIC50: −log10 of the molar value.
# Biological target: P. falciparum apicoplast DNA polymerase (Pf-apPOL) (Plasmodium falciparum, UniProt Q8ILY1)
# Test: Fluorescence-based high-throughput DNA polymerase assay (molecular beacon), primary screen and dose-response
# Assay type: biochemical
# Outline: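 Single-point screening used 10 µM compound with 20 nM polymerase, 20 nM hairpin substrate and 6 µM dNTPs for 90 min at 25 °C. Confirmatory titrations (2.5–80 µM) followed fluorescence at three times, and IC50 was derived from a fit including a cooperativity term n.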
# P. falciparum apicoplast DNA polymerase (Pf-apPOL), sequence (Q8ILY1 entry or part of it): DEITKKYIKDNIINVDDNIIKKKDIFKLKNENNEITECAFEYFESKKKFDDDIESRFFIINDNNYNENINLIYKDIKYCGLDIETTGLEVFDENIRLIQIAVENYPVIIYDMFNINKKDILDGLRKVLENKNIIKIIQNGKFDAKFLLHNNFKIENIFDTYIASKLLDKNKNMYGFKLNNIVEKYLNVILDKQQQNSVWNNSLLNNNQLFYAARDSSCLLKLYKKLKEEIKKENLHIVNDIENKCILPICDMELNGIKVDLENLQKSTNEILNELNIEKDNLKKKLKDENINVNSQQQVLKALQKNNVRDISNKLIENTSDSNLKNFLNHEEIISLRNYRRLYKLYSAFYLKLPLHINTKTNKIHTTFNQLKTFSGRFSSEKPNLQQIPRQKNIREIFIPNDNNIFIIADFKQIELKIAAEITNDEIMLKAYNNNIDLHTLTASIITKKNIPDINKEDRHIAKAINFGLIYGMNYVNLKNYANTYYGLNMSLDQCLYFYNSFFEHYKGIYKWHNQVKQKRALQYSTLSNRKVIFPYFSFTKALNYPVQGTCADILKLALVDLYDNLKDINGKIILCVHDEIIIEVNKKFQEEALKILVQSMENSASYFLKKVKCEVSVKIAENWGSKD
compound,measurement,setting,value
"COCC(=O)Nc1c(-c2cccc(F)c2)nc2cc(C)ccn12 [Molecule 44, COCC(=O)Nc1c(nc2n1ccc(c2)C)c1cccc(c1)F]",% inhibition Apo pol 10',DRC-1; 10'; concentration 2.5,6.785%
same,% inhibition Apo pol 10',DRC-1; 10'; concentration 5,30.033%
same,% inhibition Apo pol 10',DRC-1; 10'; concentration 10,50.0286%
same,% inhibition Apo pol 10',DRC-1; 10'; concentration 20,55.8788%
same,% inhibition Apo pol 10',DRC-1; 10'; concentration 40,80.2368%
same,% inhibition Apo pol 10',DRC-1; 10'; concentration 80,83.5036%
same,% inhibition Apol 90',DRC-1; 90'; concentration 2.5,1.502%
same,% inhibition Apol 90',DRC-1; 90'; concentration 5,18.1602%
same,% inhibition Apol 90',DRC-1; 90'; concentration 10,35.5455%
same,% inhibition Apol 90',DRC-1; 90'; concentration 20,42.2252%
same,% inhibition Apol 90',DRC-1; 90'; concentration 40,74.869%
same,% inhibition Apol 90',DRC-1; 90'; concentration 80,86.4562%
same,% inhibition apPOL 180',DRC-1; 180'; concentration 2.5,-2.445%
same,% inhibition apPOL 180',DRC-1; 180'; concentration 5,8.4449%
same,% inhibition apPOL 180',DRC-1; 180'; concentration 10,23.452%
same,% inhibition apPOL 180',DRC-1; 180'; concentration 20,30.1351%
same,% inhibition apPOL 180',DRC-1; 180'; concentration 40,67.7953%
same,% inhibition apPOL 180',DRC-1; 180'; concentration 80,86.4237%
same,% inhibition Apo pol 5',DRC-2; 5'; concentration 2.5,10%
same,% inhibition Apo pol 5',DRC-2; 5'; concentration 5,29%
same,% inhibition Apo pol 5',DRC-2; 5'; concentration 10,41%
same,% inhibition Apo pol 5',DRC-2; 5'; concentration 20,50%
same,% inhibition Apo pol 5',DRC-2; 5'; concentration 40,52%
same,% inhibition Apo pol 5',DRC-2; 5'; concentration 80,45%
same,% inhibition Apol 40',DRC-2; 40'; concentration 2.5,9%
same,% inhibition Apol 40',DRC-2; 40'; concentration 5,27%
same,% inhibition Apol 40',DRC-2; 40'; concentration 10,40%
same,% inhibition Apol 40',DRC-2; 40'; concentration 20,59%
same,% inhibition Apol 40',DRC-2; 40'; concentration 40,69%
same,% inhibition Apol 40',DRC-2; 40'; concentration 80,69%
same,% inhibition ApPOL 90',DRC-2; 90'; concentration 2.5,8%
same,% inhibition ApPOL 90',DRC-2; 90'; concentration 5,24%
same,% inhibition ApPOL 90',DRC-2; 90'; concentration 10,38%
same,% inhibition ApPOL 90',DRC-2; 90'; concentration 20,58%
same,% inhibition ApPOL 90',DRC-2; 90'; concentration 40,73%
same,% inhibition ApPOL 90',DRC-2; 90'; concentration 80,74%
same,% inhibition apPOL 180',DRC-2; 180'; concentration 2.5,3.16%
same,% inhibition apPOL 180',DRC-2; 180'; concentration 5,15%
same,% inhibition apPOL 180',DRC-2; 180'; concentration 10,27%
same,% inhibition apPOL 180',DRC-2; 180'; concentration 20,51%
same,% inhibition apPOL 180',DRC-2; 180'; concentration 40,73%
same,% inhibition apPOL 180',DRC-2; 180'; concentration 80,77%
same,% inhibition Apol 40',conc. 5; 40'; DRC-2,27%
same,% inhibition apPOL 180',conc. 10; 180'; DRC-2,27%
same,% inhibition Apol 40',conc. 40; 40'; DRC-2,69%
same,% inhibition ApPOL 90',conc. 40; 90'; DRC-2,73%
same,% inhibition apPOL 180',conc. 40; 180'; DRC-2,73%
same,% inhibition Apol 40',conc. 80; 40'; DRC-2,69%
same,DNA Pol,"primary screen value by plate and well; 90 min, 10 µM",43
same,DNA Pol,"primary screen value of the 186 hits; unit not given; 90 min, 10 µM",43
"COc1ccc(-c2c(C(F)(F)F)nn3c(=O)cc(-c4cccc([N+](=O)[O-])c4)[nH]c23)cc1 [Molecule 16, COc1ccc(cc1)c1c2[nH]c(cc(=O)n2nc1C(F)(F)F)c1cccc(c1)N(=O)=O]",DNA Pol,"'DNA Pol' of the 186 hits list (primary screen result); unit not given; 90 min, 10 µM",98
same,% inhibition Apo pol 10',DRC-1; 10'; concentration 2.5,21.756%
same,% inhibition Apo pol 10',DRC-1; 10'; concentration 5,31.6281%
same,% inhibition Apo pol 10',DRC-1; 10'; concentration 10,53.4209%
same,% inhibition Apo pol 10',DRC-1; 10'; concentration 20,92.9592%
same,% inhibition Apo pol 10',DRC-1; 10'; concentration 40,96.2671%
same,% inhibition Apo pol 10',DRC-1; 10'; concentration 80,97.8824%
same,% inhibition Apol 90',DRC-1; 90'; concentration 2.5,17.6214%
same,% inhibition Apol 90',DRC-1; 90'; concentration 5,24.4098%
same,% inhibition Apol 90',DRC-1; 90'; concentration 10,48.4616%
same,% inhibition Apol 90',DRC-1; 90'; concentration 20,90.3483%
same,% inhibition Apol 90',DRC-1; 90'; concentration 40,97.371%
same,% inhibition Apol 90',DRC-1; 90'; concentration 80,97.5048%
same,% inhibition apPOL 180',DRC-1; 180'; concentration 2.5,12.6653%
same,% inhibition apPOL 180',DRC-1; 180'; concentration 5,14.5865%
same,% inhibition apPOL 180',DRC-1; 180'; concentration 10,38.3358%
same,% inhibition apPOL 180',DRC-1; 180'; concentration 20,87.8097%
same,% inhibition apPOL 180',DRC-1; 180'; concentration 40,96.7933%
same,% inhibition apPOL 180',DRC-1; 180'; concentration 80,96.9215%
same,% inhibition Apol 40',"DRC-2, 40', concentration 2.5 (unit not given)",13%
same,% inhibition Apol 40',"DRC-2, 40', concentration 40 (unit not given)",75%
same,% inhibition ApPOL 90',"DRC-2, 90', concentration 5 (unit not given)",14%
same,% inhibition apPOL 180',"DRC-2, 180', concentration 20 (unit not given)",65%
same,% inhibition apPOL 180',"DRC-2, 180', concentration 40 (unit not given)",75%
same,% inhibition Apo pol 5',DRC-2; 5'; concentration 2.5,10%
same,% inhibition Apo pol 5',DRC-2; 5'; concentration 5,14%
same,% inhibition Apo pol 5',DRC-2; 5'; concentration 5 (unit not given),14%
same,% inhibition Apo pol 5',DRC-2; 5'; concentration 10,28%
same,% inhibition Apo pol 5',DRC-2; 5'; concentration 20,58%
same,% inhibition Apo pol 5',DRC-2; 5'; concentration 40,62%
same,% inhibition Apo pol 5',DRC-2; 5'; concentration 80,65%
same,% inhibition Apo pol 5',DRC-2; 5'; concentration 80 (unit not given),65%
same,% inhibition Apol 40',DRC-2; 40'; concentration 2.5,13%
same,% inhibition Apol 40',DRC-2; 40'; concentration 5,16%
same,% inhibition Apol 40',DRC-2; 40'; concentration 10,33%
same,% inhibition Apol 40',DRC-2; 40'; concentration 20,68%
same,% inhibition Apol 40',DRC-2; 40'; concentration 40,75%
same,% inhibition Apol 40',DRC-2; 40'; concentration 80,79%
same,% inhibition ApPOL 90',DRC-2; 90'; concentration 2.5,13%
same,% inhibition ApPOL 90',DRC-2; 90'; concentration 2.5 (unit not given),13%
same,% inhibition ApPOL 90',DRC-2; 90'; concentration 5,14%
same,% inhibition ApPOL 90',DRC-2; 90'; concentration 10,31%
same,% inhibition ApPOL 90',DRC-2; 90'; concentration 20,69%
same,% inhibition ApPOL 90',DRC-2; 90'; concentration 40,77%
same,% inhibition ApPOL 90',DRC-2; 90'; concentration 80,83%
same,% inhibition apPOL 180',DRC-2; 180'; concentration 2.5,9%
same,% inhibition apPOL 180',DRC-2; 180'; concentration 5,7.4%
same,% inhibition apPOL 180',DRC-2; 180'; concentration 10,23%
same,% inhibition apPOL 180',DRC-2; 180'; concentration 20,65%
same,% inhibition apPOL 180',DRC-2; 180'; concentration 40,75%
same,% inhibition apPOL 180',DRC-2; 180'; concentration 80,85%
same,DNA Pol,"primary screen value of the library well; unit not given; 90 min, 10 µM",98
O=C1N=C(Nc2cccc(Cl)c2Cl)S/C1=C\c1ccco1 [Molecule 3],pIC50,"supplemental file 2, sheet IC50 nontoxic compounds; Pf-apPOL",5.30
Cc1nn(CC(=O)NCCSCc2ccco2)c(C)c1Br [KU0267182],DNA Pol,"186 hits, value of the hit list (primary screen); unit not given; 90 min, 10 µM",72
same,% inhibition Apo pol 10',DRC-1; 10'; concentration 2.5,1.812%
same,% inhibition Apo pol 10',DRC-1; 10'; concentration 5,6.711%
same,% inhibition Apo pol 10',DRC-1; 10'; concentration 10,15.4752%
same,% inhibition Apo pol 10',DRC-1; 10'; concentration 20,17.8463%
same,% inhibition Apo pol 10',DRC-1; 10'; concentration 40,47.0773%
same,% inhibition Apo pol 10',DRC-1; 10'; concentration 80,72.2462%
same,% inhibition Apol 90',DRC-1; 90'; concentration 2.5,-1.178%
same,% inhibition Apol 90',DRC-1; 90'; concentration 5,2.416%
same,% inhibition Apol 90',DRC-1; 90'; concentration 10,7.223%
same,% inhibition Apol 90',DRC-1; 90'; concentration 20,9.063%
same,% inhibition Apol 90',DRC-1; 90'; concentration 40,29.9709%
same,% inhibition Apol 90',DRC-1; 90'; concentration 80,56.479%
same,% inhibition apPOL 180',DRC-1; 180'; concentration 2.5,-4.52%
same,% inhibition apPOL 180',DRC-1; 180'; concentration 5,-1.314%
same,% inhibition apPOL 180',DRC-1; 180'; concentration 10,2.547%
same,% inhibition apPOL 180',DRC-1; 180'; concentration 20,1.732%
same,% inhibition apPOL 180',DRC-1; 180'; concentration 40,16.5888%
same,% inhibition apPOL 180',DRC-1; 180'; concentration 80,39.2205%
same,% inhibition Apo pol 5',"DRC-2, 5', concentration 2.5",6%
same,% inhibition Apo pol 5',"DRC-2, 5', concentration 5",7.46%
same,% inhibition Apo pol 5',"DRC-2, 5', concentration 10",16%
same,% inhibition Apo pol 5',"DRC-2, 5', concentration 20",23%
same,% inhibition Apo pol 5',"DRC-2, 5', concentration 40",43%
same,% inhibition Apo pol 5',"DRC-2, 5', concentration 80",55%
same,% inhibition Apol 40',"DRC-2, 40', concentration 2.5",7.41%
same,% inhibition Apol 40',"DRC-2, 40', concentration 5",7%
same,% inhibition Apol 40',"DRC-2, 40', concentration 10",15%
same,% inhibition Apol 40',"DRC-2, 40', concentration 20",21%
same,% inhibition Apol 40',"DRC-2, 40', concentration 40",45%
same,% inhibition Apol 40',"DRC-2, 40', concentration 80",64%
same,% inhibition ApPOL 90',"DRC-2, 90', concentration 2.5",6%
same,% inhibition ApPOL 90',"DRC-2, 90', concentration 5",4%
same,% inhibition ApPOL 90',"DRC-2, 90', concentration 10",12%
same,% inhibition ApPOL 90',"DRC-2, 90', concentration 20",16%
same,% inhibition ApPOL 90',"DRC-2, 90', concentration 40",39%
same,% inhibition ApPOL 90',"DRC-2, 90', concentration 80",63%
same,% inhibition apPOL 180',"DRC-2, 180', concentration 2.5",0.763%
same,% inhibition apPOL 180',"DRC-2, 180', concentration 5",-0.774%
same,% inhibition apPOL 180',"DRC-2, 180', concentration 10",3.79%
same,% inhibition apPOL 180',"DRC-2, 180', concentration 20",7.41%
same,% inhibition apPOL 180',"DRC-2, 180', concentration 40",27%
same,% inhibition apPOL 180',"DRC-2, 180', concentration 80",55%
same,% inhibition Apo pol 5',DRC-2; 5'; concentration 2.5,6%
same,% inhibition Apo pol 5',DRC-2; 5'; concentration 10,16%
same,% inhibition Apo pol 5',DRC-2; 5'; concentration 80,55%
same,% inhibition Apol 40',DRC-2; 40'; concentration 2.5,7.41%
same,% inhibition ApPOL 90',DRC-2; 90'; concentration 2.5,6%
same,% inhibition ApPOL 90',DRC-2; 90'; concentration 20,16%
same,% inhibition apPOL 180',DRC-2; 180'; concentration 20,7.41%
same,% inhibition apPOL 180',DRC-2; 180'; concentration 80,55%
same,DNA Pol,"primary screen value, 'DNA Pol' only; 90 min, 10 µM",72
